Data: EP0293900B1, “Phenolic thioethers, sulfoxides, and disulfides as inhibitors of 5-lipoxygenase” (G.D. Searle & Co., priority 1987, dated 1988)

Each compound was assayed against T1, 5-lipoxygenase (Rattus norvegicus, UniProt P12527) (assay: Inhibition of 5-lipoxygenase, in vitro (5-HETE synthesis from [1-14C]-arachidonic acid, RBL-1 supernatant)). Details: 100,000 x g supernatant of Rat Basophilic Leukemia Cell Homogenate (RBL-1); active = 30% or more inhibition of 5-HETE synthesis; initial screening 1 x 10⁻⁴M.
T1 construct: The 100,000 x g supernatant fraction of Rat Basophilic Leukemia Cell Homogenate (RBL-1) serves as a 5-lipoxygenase enzyme source; endogenous in cells; host or cells: RBL-1 (rat basophilic leukemia) cells, 100,000 x g supernatant of the homogenate
T1 sequence (P12527 1-673): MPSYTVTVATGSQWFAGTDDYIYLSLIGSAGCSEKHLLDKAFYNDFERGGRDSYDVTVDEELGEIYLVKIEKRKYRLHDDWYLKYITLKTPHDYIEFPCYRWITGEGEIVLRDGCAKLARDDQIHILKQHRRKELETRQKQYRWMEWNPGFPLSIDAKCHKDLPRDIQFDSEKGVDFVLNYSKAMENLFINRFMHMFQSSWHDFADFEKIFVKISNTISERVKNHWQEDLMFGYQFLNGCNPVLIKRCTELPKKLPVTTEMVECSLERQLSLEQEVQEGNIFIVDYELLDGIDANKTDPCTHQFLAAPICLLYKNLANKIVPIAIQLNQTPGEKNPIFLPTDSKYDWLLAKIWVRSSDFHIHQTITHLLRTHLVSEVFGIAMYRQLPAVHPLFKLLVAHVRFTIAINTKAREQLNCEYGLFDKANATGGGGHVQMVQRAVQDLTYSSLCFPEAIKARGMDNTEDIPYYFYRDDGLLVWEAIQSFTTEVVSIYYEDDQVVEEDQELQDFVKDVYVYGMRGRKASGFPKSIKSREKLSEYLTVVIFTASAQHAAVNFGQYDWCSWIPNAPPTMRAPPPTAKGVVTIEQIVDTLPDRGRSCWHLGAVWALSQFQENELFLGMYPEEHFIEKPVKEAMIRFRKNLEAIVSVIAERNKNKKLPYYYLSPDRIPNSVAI
Type: biochemical
Protocol: The compounds of the invention are evaluated with respect to 5-lipoxygenase inhibition according to the following assay procedure.
Inhibition of 5-lipoxygenase, in vitro: anti-inflammatory, anti-allergy activities.
The 100,000 x g supernatant fraction of Rat Basophilic Leukemia Cell Homogenate (RBL-1) serves as a 5-lipoxygenase enzyme source. The enzyme is incubated with [1-¹⁴C)-arachidonic acid and Ca⁺⁺ in the presence and absence of test compound. The product of 5-lipoxygenase, 5-hydroxyeicosatetraenoic acid (5-HETE), is separated by thin-layer chromatography and measured by radioactivity. A compound inhibiting 5-HETE synthesis by 30% or more is considered active at that concentration. Initial screening doses are 1 x 10⁻⁴M.
For COC(=O)CCS(=O)(=O)c1cc(C(C)(C)C)c(O)c(C(C)(C)C)c1 [Example 11, Methyl 3-[[3,5-bis(1,1 dimethylethyl)-4-hydroxyphenyl]sulfonyl]propanoate], the “5-Lipoxygenase Inhibition, in vitro. IC₅₀” value was “Inactive”.

Same assay, conditions: 100,000 x g supernatant of Rat Basophilic Leukemia Cell Homogenate (RBL-1); active = 30% or more inhibition of 5-HETE synthesis; initial screening 1 x 10⁻⁴M; read-out: 5-Lipoxygenase Inhibition, in vitro. IC₅₀
Work on CC(C)(C)c1cc(SCCCC(=O)O)cc(C(C)(C)C)c1O [Example 3, 4-[[3,5-bis(1,1-dimethylethyl)-4-hydroxyphenyl]thio] butanoic acid] yielded an IC50 of 1000 nM. CC(C)(C)c1cc(SCCCCC(=O)O)cc(C(C)(C)C)c1O [Example 4, 5-[[3,5-bis(1,1-dimethylethyl)-4-hydroxyphenyl]thio]pentanoic acid] showed an IC50 of 1100 nM. In the case of CCOC(=O)C(C)Sc1cc(C(C)(C)C)c(O)c(C(C)(C)C)c1 (centres unmarked) [Example 5, Ethyl 2-[[3,5-bis(1,1-dimethylethyl)-4-hydroxyphenyl]thio]propanoate], the IC50 is reported as 390 nM. Work on CCCC(Sc1cc(C(C)(C)C)c(O)c(C(C)(C)C)c1)C(=O)OCC (centres unmarked) [Example 7, Ethyl 2-[[3,5-bis(1,1-dimethylethyl)-4-hydroxyphenyl]thio]pentanoate] yielded an IC50 of 1300 nM. Work on CCCC(Sc1cc(C(C)(C)C)c(O)c(C(C)(C)C)c1)C(=O)O (centres unmarked) [Example 8] yielded an IC50 of 6600 nM. COC(=O)CCSc1cc(C(C)(C)C)c(O)c(C(C)(C)C)c1 [Example 9, Methyl 3-[[3,5-bis(1,1-dimethylethyl)-4-hydroxyphenol]thio]propanoate] was tested, and the IC50 was 380 nM. COC(=O)CC[S+]([O-])c1cc(C(C)(C)C)c(O)c(C(C)(C)C)c1 (centres unmarked) [Example 10, Methyl 3-[[3,5-bis(1,1-dimethylethyl)-4-hydroxyphenyl]sulfinyl]propanoate] showed an IC50 of 16500 nM. Work on CC(C)(C)c1cc(SCCC(=O)O)cc(C(C)(C)C)c1O [Example 12, 3-[[3,5-bis(1,1-dimethylethyl)-4-hydroxyphenyl]thio]propanic acid] yielded an IC50 of 3400 nM. With CCOC(=O)C=CCCSc1cc(C(C)(C)C)c(O)c(C(C)(C)C)c1 [Example 13, Ethyl 5-[[3,5-bis(1,1-dimethylethyl)-4-hydroxyphenyl]thio]-2-pentenoate] the IC50 was 260 nM. COC(=O)CSSc1cc(C(C)(C)C)c(O)c(C(C)(C)C)c1 [Example 14, Methyl [[3,5-bis(1,1-dimethylethyl)-4-hydroxyphenyl]dithio]acetate] was tested, and the IC50 was 400 nM.
